We go through 5 compounds from patent publication US20160040126A1, “REGULATION OF DIFFERENTIATION INTO DOPAMINERGIC NEURONS BY METALLOPROTEASE” (Korea University Research and Business Foundation, priority 2012, published 2016).

In one assay the test system is ERK. Briefly: Phosphorylation of ERK in midbrain neurons. Format: cell-based, mice. Particulars: for effect of the agent on the phosphorylation of ERK by quinpirole: co-treatment with quinpirole, or siRNA knockdown before quinpirole; for effect of the agent on the phosphorylation of ERK by EGF: co-treatment with EGF.
Assay [1] has as its system midbrain neurons derived from normal mice and D2R−/− mice. Briefly: Differentiation of midbrain neurons into dopaminergic neural cells (TH immunostaining: number of TH-positive cells, neurite length, neurite number). The assay is classed as cell-based. The following applies: for effect of the agent on the development of dopaminergic neural cells by EGF+quinpirole: co-treatment with EGF+quinpirole, normal mice and D2R−/− mice; for effect of the agent on the differentiation/development of dopaminergic neural cells by EGF: co-treatment with EGF, or siRNA knockdown before EGF. How it is done: Midbrain neurons derived from normal mice and D2R−/− mice were treated with each of EGF, EGF+haloperidol, EGF+AG1478 and EGF+PD98059, and then stained with TH by an immunostaining technique. Then, the number of TH-positive cells, the length of neurites and the number of neurites in the midbrain neurons were compared between EGF, EGF+haloperidol, EGF+AG1478 and EGF+PD98059 to determine the abilities to induce differentiation into dopaminergic neural cells.
Then, the number of TH-positive cells, the length of neurites and the number of neurites in the midbrain neurons were compared to determine the abilities to induce differentiation into dopaminergic neural cells.

As to `COc1cc2ncnc(Nc3cccc(Cl)c3)c2cc1OC` [AG1478], the “effect of the agent on the phosphorylation of ERK by quinpirole” value with ERK is “inhibited”. Also, the “effect of the agent on the development of dopaminergic neural cells by EGF+quinpirole” value in assay [1] was “inhibited to the basal level”. In addition, the “effect of the agent on the differentiation/development of dopaminergic neural cells by EGF” value in assay [1] (midbrain neurons) is on record as “completely blocked”.

As for “EGF: epidermal growth factor (NSDSECPLSHDGYCLHDGVCMYIEALDKYACNCVVGYIGERCQYRDLKWWELR; Epidermal growth factor; UniProt P01133 971-1023, looked up)”, the “phosphorylation of ERK by the agent” value in the assay on ERK (compared to that in the control) is reported as 417%. In addition, in assay [1] (treated with the agent alone, normal mouse and D2R−/− mouse midbrain neurons, TH immunostaining), the “differentiation of dopaminergic neural cells from midbrain neurons” value is on record as “promoted”.

On to `COc1cccc(-c2cc(=O)c3ccccc3o2)c1N` [PD98059], for which the “effect of the agent on the differentiation/development of dopaminergic neural cells by EGF” value in assay [1] (midbrain neurons) is “completely blocked”.

In the case of `O=C(CCCN1CCC(O)(c2ccc(Cl)cc2)CC1)c1ccc(F)cc1` [haloperidol], in the assay with ERK, the “effect of the agent on the phosphorylation of ERK by EGF” value is on record as “not inhibited”. The “effect of the agent on the development of dopaminergic neural cells by EGF+quinpirole” value in assay [1] is given as “not inhibited”. Moreover, the “effect of the agent on the differentiation/development of dopaminergic neural cells by EGF” value in assay [1] (midbrain neurons) is given as “not blocked”.

As for `CNC(=O)[C@H](Cc1c[nH]c2ccccc12)NC(=O)[C@H](CC(=O)NO)CC(C)C` [GM6001, (2S)—N4-hydroxy-N1-[(1S)-1-(1H-indol-3-ylmethyl)-2-(methylamino)-2-oxoethyl]-2-isobutylsuccinamide], in the assay on ERK, the “effect of the agent on the phosphorylation of ERK by EGF” value is recorded as “not influenced” and the “effect of the agent on the phosphorylation of ERK by quinpirole” value is on record as “inhibited to the basal level”. In addition, in assay [1] (midbrain neurons), the “effect of the agent on the differentiation/development of dopaminergic neural cells by EGF” value is reported as “not inhibited”. In addition, in assay [1] (co-treatment with quinpirole, or siRNA knockdown before quinpirole, midbrain neurons), the “effect of the agent on the development of dopaminergic neural cells by quinpirole” value is given as “inhibited”.
